{
  "source": "patent US12409174B2",
  "about": "“Combination of zibotentan and dapagliflozin for the treatment of endothelin related diseases” (priority 2020, dated 2025)",
  "key": {"[1]": {"system": "male Wistar rats fed a 4% salt diet", "test": "Effect of zibotentan and dapagliflozin on Hb, Experiment 2", "type": "in vivo", "settings": "Exp 2; for Basal Hb: baseline", "description": "(§1) In the second experiment (Experiment 2), the effect of zibotentan and dapagliflozin (alone or in combination) on Hct concentration and Hb was determined. Seventy-two animals were randomized on BW and Hct concentration, 2 to 3 days prior to administration of study drugs into the following groups; 1) Vehicle, 2) Zibotentan (30 mg/kg), 3) Zibotentan (100 mg/kg), 4) Dapagliflozin (3 mg/kg), 5) Zibotentan (30 mg/kg)+Dapagliflozin (3 mg/kg) and 6) Zibotentan (100 mg/kg)+Dapagliflozin (3 mg/kg). For practical reasons, the study was conducted in two consecutive slots with 36 animals (6/group) in each slot. Compounds were administered p.o. QD for seven days. Blood samples for bioanalysis were collected at 4 and 24 hr after the first dose and 24 hr after the final dose for Hct concentration and Hb analysis on day three and seven as described for exp.1. Twenty-four hour urine was collected between the third and fourth dose. 24 hr food and water intake was measured between day 2-3 and between day 6-7. With two animals per cage, food intake and water intake per animal in a cage was assessed by dividing the food intake and water intake of a cage by two.\n(§2) For Hct and Hb analysis, 100 μl of blood from rat's tail vein was collected and measured using CG8 cartridges analysed with an iSTAT instrument (Abbott Point of Care Inc, Abbot Park, IL, USA).\n(§3) The data for each feature measured was checked for a normal distribution and where appropriate a log transformation was applied to data with a non-normal distribution using R. Since the data were grouped by one factor Zibotentin doses or combined therapy, a one-way ANOVA was used to analyse traits measured at a single time point (GraphPad version 8 or R statistics package emmeans) and a linear mixed effects model (nlme package) in R was used to analyse multiple measures data for body weight. The differences between groups were tested using either a Dunnett test (emmeans package in R or GraphPad v8) when comparing treated groups to the vehicle group or a Tukey comparison (emmeans package in R or Graphpad v8.) for specific pairwise comparisons of treated groups. All model assumptions were checked using the model diagnostic plots in R statistics. Results are expressed as the Mean±standard error of the Mean (SEM) for pharmacodynamic parameters and Mean±standard deviation (SD) for compound concentration in blood and urine. Significance was set at p<0.05."}, "[2]": {"system": "male Wistar rats fed a 4% salt diet", "test": "24 hr water and food intake, Experiment 2", "type": "in vivo", "settings": "Exp 2; FIG. 8B and FIG. 8C", "description": "as §1"}, "[3]": {"system": "male Wistar rats fed a 4% salt diet", "test": "Effect of zibotentan, dapagliflozin and the combination on Hct, Experiment 2", "type": "in vivo", "parameters": "key to Hct levels, difference in means (estimate): difference in log-transformed Hct means, treated minus vehicle; Hct levels, Difference / Difference in Hct means: unit not given here", "settings": "Exp 2; for Difference in Hct means: all time points; for Hct levels, difference in means (estimate): log scale", "description": "as §1, §2, §3\nThe Hct data were analysed using a linear mixed effects model to estimate the marginal means and standard deviations within the vehicle and treated groups estimated at day 3, day 7 and overall for the entire study for post hoc comparisons. Treatment groups were compared to the vehicle to determine whether there were effects on Hct compared to the vehicle treated control group (Dunnett test), and the zibotentan treated groups were compared to zibotentan plus dapagliflozin groups (using a Tukey test) to determine if the combined therapy mitigated the effect of zibotentan on Hct."}, "[4]": {"test": "Amount of dapagliflozin and zibotentan excreted in urine, Experiment 2", "settings": "Exp 2, urine collected between days 3 and 4", "description": "as §1"}, "[5]": {"system": "patients with CKD with and without type 2 diabetes", "settings": "dapagliflozin 10 mg", "description": "The effect of dapagliflozin on albuminuria was investigated in patients with CKD with and without type 2 diabetes. In this analysis from the Phase 3 DAPA CKD trial, the efficacy of dapagliflozin was assessed to determine whether treatment with dapagliflozin reduces the level of albuminuria in patients with CKD.\nIn the trial, 4304 patients with estimated glomerular filtration rate 25-75 mL/min/1·73 m2 and urinary UACR 200-5000 mg/g were randomized to dapagliflozin (10 mg) or placebo. Change in albuminuria was assessed as the mean change in log-transformed UACR from baseline to end of study. Regression in UACR stage, defined as a transition from macroalbuminuria (≥300 mg/g) to micro- or normoalbuminuria (<300 mg/g), and progression in UACR stage, defined as a transition from <3000 mg/g to ≥3000 mg/g, were additional endpoints."}, "[6]": {"system": "male Wistar rats fed a 4% salt diet", "test": "Effect on urinary volume, glucose, Na, K, urea and creatinine in the urine, Experiment 2", "type": "in vivo", "settings": "Exp 2; for Urine Creatinine / Urine K / Urine Na / Urine Urea / Urine volume: 24 hr urine between third and fourth dose; for Urine glucose excretion: FIG. 8A", "description": "as §1\nPlasma and Urine Albumin, Creatinine, Glucose, Urea, Potassium and Sodium levels were analyzed using an ABX Pentra 400 instrument (Horiba Medical, Irvine, California, USA) according to the manufacturers protocol.\nas §3"}},
  "note": "Like-named read-outs stand apart in the source and are kept apart here.",
  "data": [
    {"smiles": "CCOc1ccc(Cc2cc([C@@H]3O[C@H](CO)[C@@H](O)[C@H](O)[C@H]3O)ccc2Cl)cc1", "note": "[Dapa, (1S)-1,5-anhydro-1-{4-chloro-3-[(4-ethoxyphenyl)methyl]phenyl}-D-glucitol]", "values": [
      {"measurement": "Day 3 Hb", "setting": "[1]; Dapa 3 mg/kg p.o. QD", "result": 164.4, "unit": "g/L"},
      {"measurement": "Day 7 Hb", "setting": "[1]; Dapa 3 mg/kg p.o. QD", "result": 159.1, "unit": "g/L"},
      {"measurement": "Basal Hb", "setting": "[1]; group Dapa 3 mg/kg", "result": 157.9, "unit": "g/L"},
      {"measurement": "Water and food intake compared to vehicle", "setting": "[2]", "result": "increased"},
      {"measurement": "Difference in Hct means", "setting": "[3]; Dapa 3 mg/kg vs Vehicle", "result": 0.01},
      {"measurement": "Hct levels, difference in means (estimate)", "setting": "[3]; day 3, Dapa 3.0 mg/kg vs Vehicle", "result": 0.03},
      {"measurement": "Hct levels, Difference", "setting": "[3]; day 7, Dapa 3.0 mg/kg vs Vehicle", "result": 0.01},
      {"measurement": "Amount of dapagliflozin excreted in urine", "setting": "[4]; Dapa 3 mg/kg p.o. QD", "result": 0.198, "unit": "µmol"},
      {"measurement": "Progression in UACR stage, hazard ratio", "setting": "[5]; 3820 patients with UACR<3000 mg/g at baseline, 95% CI 0.32-0.52", "result": 0.41},
      {"measurement": "Regression in UACR stage, hazard ratio", "setting": "[5]; 3860 patients with UACR≥300 mg/g at baseline, 95% CI 1.60-2.05", "result": 1.81},
      {"measurement": "UACR reduction compared to placebo", "setting": "[5]; CKD patients with and without type 2 diabetes, baseline to end of study, 95% CI 25.2-33.1%", "result": 29.3, "unit": "%"},
      {"measurement": "UACR reduction compared to placebo", "setting": "[5]; CKD patients with type 2 diabetes, 95% CI 30.6-39.4%", "result": 35.1, "unit": "%"},
      {"measurement": "UACR reduction compared to placebo", "setting": "[5]; CKD patients without type 2 diabetes, 95% CI 5.9-22.9%", "result": 14.8, "unit": "%"},
      {"measurement": "24-hour urine volume and urea excretion compared to vehicle", "setting": "[6]", "result": "increased"},
      {"measurement": "Urine Na, K and creatinine compared to vehicle", "setting": "[6]", "result": "No change"},
      {"measurement": "Urine Creatinine", "setting": "[6]; Dapa 3 mg/kg p.o. QD", "result": 76.42, "unit": "µmol"},
      {"measurement": "Urine K", "setting": "[6]; Dapa 3 mg/kg p.o. QD", "result": 1.40, "unit": "mmol"},
      {"measurement": "Urine Na", "setting": "[6]; Dapa 3 mg/kg p.o. QD", "result": 12.60, "unit": "mmol"},
      {"measurement": "Urine Urea", "setting": "[6]; Dapa 3 mg/kg p.o. QD", "result": 7.43, "unit": "mmol"},
      {"measurement": "Urine volume", "setting": "[6]; Dapa 3 mg/kg p.o. QD", "result": 43.13, "unit": "mL"},
      {"measurement": "Urine glucose excretion", "setting": "[6]", "result": "significantly increased"}
    ]},
    {"smiles": "COc1nc(C)cnc1NS(=O)(=O)c1cccnc1-c1ccc(-c2nnco2)cc1", "note": "[Zibo, N-(3-methoxy-5-methylpyrazin-2-yl)-2-[4-(1,3,4-oxadiazol-2-yl)phenyl]pyridine-3-sulfonamide]", "values": [
      {"measurement": "Day 3 Hb", "setting": "[1]; Zibo 30 mg/kg p.o. QD", "result": 144.4, "unit": "g/L"},
      {"measurement": "Day 7 Hb", "setting": "[1]; Zibo 30 mg/kg p.o. QD", "result": 148.6, "unit": "g/L"},
      {"measurement": "Day 3 Hb", "setting": "[1]; Zibo 100 mg/kg p.o. QD", "result": 147.5, "unit": "g/L"},
      {"measurement": "Day 7 Hb", "setting": "[1]; Zibo 100 mg/kg p.o. QD", "result": 144.8, "unit": "g/L"},
      {"measurement": "Basal Hb", "setting": "[1]; group Zibo 30 mg/kg", "result": 160.2, "unit": "g/L"},
      {"measurement": "Basal Hb", "setting": "[1]; group Zibo 100 mg/kg", "result": 158.5, "unit": "g/L"},
      {"measurement": "Water and food intake compared to vehicle", "setting": "[2]", "result": "unchanged"},
      {"measurement": "Difference in Hct means", "setting": "[3]; Zibo 30 mg/kg vs Vehicle", "result": "−0.05"},
      {"measurement": "Difference in Hct means", "setting": "[3]; Zibo 100 mg/kg vs Vehicle", "result": "−0.06"},
      {"measurement": "Hct levels, difference in means (estimate)", "setting": "[3]; day 3, Zibo 30 mg/kg vs Vehicle", "result": "−0.10"},
      {"measurement": "Hct levels, difference in means (estimate)", "setting": "[3]; day 3, Zibo 100 mg/kg vs Vehicle", "result": "−0.08"},
      {"measurement": "Hct compared to vehicle", "setting": "[3]; day 3, zibotentan 30 and 100 mg/kg with or without dapagliflozin 3 mg/kg", "result": "decreased"},
      {"measurement": "Hct levels, Difference", "setting": "[3]; day 7, Zibo 30 mg/kg vs Vehicle", "result": "−0.06"},
      {"measurement": "Hct levels, Difference", "setting": "[3]; day 7, Zibo 100 mg/kg vs Vehicle", "result": "−0.08"},
      {"measurement": "Hct compared to vehicle", "setting": "[3]; day 7, zibotentan 30 and 100 mg/kg alone", "result": "decreased"},
      {"measurement": "Effect on Hct concentration", "setting": "[3]; zibotentan 100 mg/kg alone, 7 days, one way ANOVA, Tukey", "result": "−4.00±0.87"},
      {"measurement": "Hct concentration", "setting": "[3]; zibotentan 30 or 100 mg/kg, 7 days administration", "result": "significantly decreased"},
      {"measurement": "Amount of zibotentan excreted in urine", "setting": "[4]; Zibo 30 mg/kg p.o. QD", "result": 2.17, "unit": "µmol"},
      {"measurement": "Amount of zibotentan excreted in urine", "setting": "[4]; Zibo 100 mg/kg p.o. QD", "result": 3.21, "unit": "µmol"},
      {"measurement": "24-hour urine volume and urea excretion compared to vehicle", "setting": "[6]", "result": "No difference"},
      {"measurement": "Urine Na, K and creatinine compared to vehicle", "setting": "[6]", "result": "No change"},
      {"measurement": "Urine glucose excretion", "setting": "[6]", "result": "no effect"},
      {"measurement": "Urine Creatinine", "setting": "[6]; Zibo 30 mg/kg p.o. QD", "result": 71.33, "unit": "µmol"},
      {"measurement": "Urine K", "setting": "[6]; Zibo 30 mg/kg p.o. QD", "result": 1.27, "unit": "mmol"},
      {"measurement": "Urine Na", "setting": "[6]; Zibo 30 mg/kg p.o. QD", "result": 10.67, "unit": "mmol"},
      {"measurement": "Urine Urea", "setting": "[6]; Zibo 30 mg/kg p.o. QD", "result": 4.61, "unit": "mmol"},
      {"measurement": "Urine volume", "setting": "[6]; Zibo 30 mg/kg p.o. QD", "result": 19.08, "unit": "mL"},
      {"measurement": "Urine Creatinine", "setting": "[6]; Zibo 100 mg/kg p.o. QD", "result": 68.18, "unit": "µmol"},
      {"measurement": "Urine K", "setting": "[6]; Zibo 100 mg/kg p.o. QD", "result": 1.16, "unit": "mmol"},
      {"measurement": "Urine Na", "setting": "[6]; Zibo 100 mg/kg p.o. QD", "result": 10.03, "unit": "mmol"},
      {"measurement": "Urine Urea", "setting": "[6]; Zibo 100 mg/kg p.o. QD", "result": 4.11, "unit": "mmol"},
      {"measurement": "Urine volume", "setting": "[6]; Zibo 100 mg/kg p.o. QD", "result": 19.08, "unit": "mL"}
    ]}
  ]
}
